Patent US20220372549A1, “Thermally Responsive Conjugates” (MIP Diagnostic Limited, priority 2019, published 2022)

What was measured:
[1] = tested on: UltraScript 2.0 Reverse Transcriptase; settings: 150 ng conjugate, RTase 324 nM, 30 min at 25, 43, 55 and then 35° C.; loss of product peak
Experimental: The reaction was performed using the UltraScript 2.0 Reverse Transcriptase from PCR Bio (UK), according to the instructions of the manufacturer. General conditions were, for a 20 μl total reaction volume:
RNA=5 μg template plus random hexamer primers, in PCR Bio buffer mix.
Individual reaction vials were kept at the set temperature for 30 min and the reaction allowed to proceed. The temperatures used were 25° C., 43° C., 55° C. and 35° C., the latter being done after the 55° C. step. After each incubation, 1-2 μl of cDNA product was taken for qPCR amplification and quantification. Inhibition detected by observing loss of product peak.

[2] = tested on: pyrophosphatase (PPase); settings: cited from earlier work

Substance: zidovudine-poly-N-isopropylmethacrylamide
- RTase inhibition, thermal reversibility [1]: inhibition was reversible

Substance: pyrophosphatase [unconjugated free enzyme]
- optimum temperature [2]: 45 °C
